Values quoted from earlier work as cited in patent publication US20150024042A1 (POZEN INC., priority 2011, published 2015).

What was measured:
[1] = repeated oral doses of 75 mg clopidogrel (base)
[2] = 95% CI 0.84 to 0.98
[3] = in vivo

## COC(=O)[C@H](c1ccccc1Cl)N1CCc2sccc2C1 [clopidogrel]
[1]
  time of peak plasma levels of the main circulating metabolite after dosing: approximately one
[2]
  cardiovascular events compared with aspirin, OR: 0.91
[3]
  gastrointestinal hemorrhage, incidence: 2.0 % annually
